Results published in US11109593B2, “Isoxazolin-5-one derivative and herbicide containing same as active ingredient” (HOKKO CHEMICAL INDUSTRY CO., LTD., priority 2017, dated 2021).

Legend:
Assay type in all cases: in vivo
[1] = system: Chenopodium album; assay: Test Example 3: herbicidal effect test by treatment of dry field farming soil (one day after seeding); conditions: 120 g/10a active ingredient, evaluated 14 days after treatment
Procedure, shortened: (§1)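 Herbicidal rate (%) equals 1 minus treated/untreated mean plant dry weight, times 100, taken 14 days after treatment in duplicate pots. Emulsion diluted in water was applied at 100 L per 10 ares (120 g a.i. per 10 ares) one day after sowing 20 seeds per species into the top 1 cm of alluvial soil.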

[2] = system: southern crabgrass; assay: as above; conditions: 120 g/10a active ingredient, evaluated 14 days after treatment
Procedure, shortened: as §1

[3] = system: Amaranthus viridis; assay: as above; conditions: 120 g/10a active ingredient, evaluated 14 days after treatment
Procedure, shortened: as §1

[4] = system: Echinochloa crus-galli; assay: as above; conditions: 120 g/10a active ingredient, evaluated 14 days after treatment
Procedure, shortened: as §1

[5] = system: broad leaf weeds (Lindernia pyxidaria and Monochoria vaginalis); assay: Test Example 2: herbicidal effect test by treatment during growing period in paddy rice cultivation (seven days after seeding); conditions: 120 g/10a active ingredient, assessed 14 days after treatment, dry weight vs untreated area
Procedure, shortened: (§2)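 Herbicidal rate (%) = {1 − treated/untreated mean plant dry weight} × 100, assessed in duplicate 14 days post-treatment. Emulsion formulations were diluted in water and dropped onto flooded (about 3 cm) paddy pots 7 days after seeding, giving 120 g a.i. per 10 ares. Plants were grown in a glass greenhouse.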

[6] = system: Scirpus juncoides; assay: as above; conditions: 120 g/10a active ingredient, assessed 14 days after treatment, dry weight vs untreated area
Procedure, shortened: as §2

[7] = system: Echinochloa crus-galli; assay: as above; conditions: 120 g/10a active ingredient, assessed 14 days after treatment, dry weight vs untreated area
Procedure, shortened: as §2

[8] = system: broad leaf weeds (Lindernia pyxidaria and Monochoria vaginalis); assay: Test Example 1: herbicidal effect test by treatment of rice paddy soil (immediately after seeding); conditions: 120 g/10a active ingredient, dry weight vs untreated area, 14 days after treatment
Procedure, shortened: (§3)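 Paddy soil in pots with compound fertilizer, puddled; 30 seeds per species sown at 0–1 cm, flooded ~3 cm, greenhouse. Water-diluted emulsions dropped onto water immediately after seeding at 120 g active ingredient per 10 ares, duplicate. Herbicidal rate (%) from plant dry weight versus untreated, 14 days after treatment.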

[9] = system: Scirpus juncoides; assay: as above; conditions: 120 g/10a active ingredient, dry weight vs untreated area, 14 days after treatment
Procedure, shortened: as §3

[10] = system: Echinochloa crus-galli; assay: as above; conditions: 120 g/10a active ingredient, dry weight vs untreated area, 14 days after treatment
Procedure, shortened: as §3

[11] = system: Chenopodium album; assay: Test Example 4: herbicidal effect test by treatment of leave and stem in dry field farming (seven days after seeding); conditions: 120 g/10a active ingredient; emulsion sprayed seven days after seeding; evaluated 14 days after treatment
Procedure, shortened: (§4)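 Twenty seeds per species were mixed into the top 1 cm of alluvial soil in 36 cm^2 pots; emulsions were sprayed seven days after seeding at 100 L per 10 ares (120 g active ingredient per 10 ares). Herbicidal rate (%) = {1 − treated/untreated mean dry weight} × 100, 14 days after treatment, duplicate.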

[12] = system: southern crabgrass; assay: as above; conditions: 120 g/10a active ingredient; emulsion sprayed seven days after seeding; evaluated 14 days after treatment
Procedure, shortened: as §4

[13] = system: Amaranthus viridis; assay: as above; conditions: 120 g/10a active ingredient; emulsion sprayed seven days after seeding; evaluated 14 days after treatment
Procedure, shortened: as §4

[14] = system: Echinochloa crus-galli; assay: as above; conditions: 120 g/10a active ingredient; emulsion sprayed seven days after seeding; evaluated 14 days after treatment
Procedure, shortened: as §4

| SMILES | herbicidal rate, Chenopodium album [1] [%] | herbicidal rate, southern crabgrass [2] [%] | herbicidal rate, Amaranthus viridis [3] [%] | herbicidal rate, Echinochloa crus-galli [4] [%] | Herbicidal rate (%) Lindernia pyxidaria [5] [%] | Herbicidal rate (%) Monochoria vaginalis [5] [%] | Herbicidal rate (%) Scirpus juncoides [6] [%] | Herbicidal rate (%) Echinochloa crus-galli [7] [%] | Herbicidal rate (%) Lindernia pyxidaria [8] [%] | Herbicidal rate (%) Monochoria vaginalis [8] [%] | Herbicidal rate (%) Scirpus juncoides [9] [%] | Herbicidal rate (%) Echinochloa crus-galli [10] [%] | herbicidal effect (herbicidal rate), Chenopodium album [11] [%] | herbicidal effect (herbicidal rate), southern crabgrass [12] [%] | herbicidal effect (herbicidal rate), Amaranthus viridis [13] [%] | herbicidal effect (herbicidal rate), Echinochloa crus-galli [14] [%] |
| --- | --- | --- | --- | --- | --- | --- | --- | --- | --- | --- | --- | --- | --- | --- | --- | --- |
| COCCOC(=O)N(c1ccccc1Cc1c(C)n(CCSC)oc1=O)S(=O)(=O)C(F)(F)F [Compound 1-735] | 90 | 90 | 90 | 90 | 90 | 90 | 90 | 90 | 90 | 90 | 90 | 90 | 40 | 90 | 40 | 90 |
| COCCOC(=O)N(c1ccccc1Cc1c(C)n(C(C)c2ccccc2)oc1=O)S(=O)(=O)C(F)(F)F (centres unmarked) [Compound 1-736] | 90 | 90 | 90 | 90 | 90 | 90 | 90 | 90 | 90 | 90 | 90 | 90 | 40 | 90 | 40 | 90 |
| Cc1c(Cc2ccccc2N(S(=O)(=O)C(F)(F)F)S(=O)(=O)C(F)(F)F)c(=O)on1C(C)Cc1ccccc1 (centres unmarked) [Compound 1-1045] | 40 | 50 | 40 | 90 | 60 | 90 | 90 | 90 | 90 | 80 | 90 | 100 | 0 | 40 | 60 | 90 |
| CCC(=O)N(c1ccccc1Cc1c(C)n(C(C)COC)oc1=O)S(=O)(=O)C(F)(F)F (centres unmarked) [Compound 1-319] | 90 | 90 | 90 | 90 | 90 | 90 | 90 | 90 | 90 | 90 | 90 | 90 | 40 | 90 | 40 | 90 |
| CCC(C)n1oc(=O)c(Cc2ccccc2N(C(=O)COC)S(=O)(=O)C(F)(F)F)c1C (centres unmarked) [Compound 1-444] | 90 | 90 | 90 | 90 | 90 | 90 | 90 | 90 | 90 | 90 | 90 | 90 | 40 | 90 | 40 | 90 |
| Cc1c(Cc2ccccc2NS(=O)(=O)C(F)(F)F)c(=O)on1C(C)(C)C [Compound 1-101] | 90 | 90 | 90 | 90 | 90 | 90 | 90 | 90 | 90 | 90 | 90 | 90 | 40 | 90 | 40 | 90 |
| CCC(C)Cn1oc(=O)c(Cc2ccccc2N(C(C)=O)S(=O)(=O)C(F)(F)F)c1C (centres unmarked) [Compound 1-300] | 60 | 100 | 80 | 90 | 70 | 90 | 80 | 100 | 80 | 70 | 90 | 100 | 60 | 90 | 70 | 90 |
| COC(=O)N(c1ccccc1Cc1c(C)n(Cc2ccc(F)cc2)oc1=O)S(=O)(=O)C(F)(F)F [Compound 1-597] | 0 | 90 | 0 | 90 | 80 | 100 | 90 | 90 | 90 | 100 | 90 | 90 | 40 | 50 | 40 | 40 |
